Assay results from article PMC3722118, “Hellebrin and its aglycone form hellebrigenin display similar in vitro growth inhibitory effects in cancer cells and binding profiles to the alpha subunits of the Na^+/K^+-ATPase” (Molecular Cancer, 2013).

Test system: HT-29 colon cancer cells
Assay: O2 consumption rate (MitoXpress assay)
Type: cell-based, human
Conditions: compounds at their IC50 (MTT), 24 h
Experimental: For enzymatic determination of lactate production, confluent tumor cells were incubated with 10 mM glucose for 24 hours. Culture medium was then filtered through centrifugation columns with a 10 KDa cutoff, and L-lactate concentrations were determined on an ISCUSflex analyzer (CMA Microdialysis AB, Solna, Sweden). O2 consumption was determined using the MitoXpress assay according to the manufacturer’s instructions (LuxCell Biosciences, Cork, Ireland). Briefly, after adding the oxygen probe to tumor cells cultured for 24 hours in 96-well microplates with or without the tested compounds, the wells were sealed with mineral oil, and respiration was evaluated using time-resolved fluorescent plate readers. Under these conditions, O2 depletion was translated into an increase in probe phosphorescence signal, and the slope of this signal was used to derive the O2 consumption rate.
Figure 6 Metabolic profiling of human HT29 colon cancer cells treated with cardiotonic steroids. A: Extracellular lactate concentrations and B: O2 consumption rates in HT29 cancer cells treated with the indicated compounds at their IC50in vitro growth inhibitory concentrations (see Table 1). The data (mean ± SEM from triplicates) are expressed in mM lactate accumulated in the extracellular medium after 24 hours and arbitrary units derived from time-resolved fluorescent signal.min^-1.

C[C@@H]1O[C@@H](O[C@H]2CC[C@]3(C=O)[C@H]4CC[C@]5(C)[C@@H](c6ccc(=O)oc6)CC[C@]5(O)[C@@H]4CC[C@]3(O)C2)[C@H](O)[C@H](O)[C@H]1O[C@@H]1O[C@H](CO)[C@@H](O)[C@H](O)[C@H]1O [Hellebrin]
O2 consumption rate (cell respiration): significantly reduced
